The nature of data set [1]: In vivo pharmacokinetics, plasma concentration by LC-MS/MS. Particulars: female, mouse, single dose 10 mg/kg IP, C57BL/6 mice, read-out: plasma concentration 24 h after drug administration.
Description: Then the blood was collected at different time points and the plasma drug concentration was measured using tandem mass spectroscopy coupled with liquid chromatography (LC/MS-MS) methods.
Blood was collected at 0.083, 0.25, 0.5, 1, 2, 4, 8, 24 h post drug administration. Blood was collected from each mouse from the submandibular vein (3 time points/mouse). The blood was collected into the EDTA-K2 tubes, and centrifuged at 4,000× rpm for 10 min at 4 °C. The plasma was removed and stored at −80 °C until further analysis. The quantitative LC-MS/MS analyses were conducted using an Agilent 1200 HPLC system coupled to an API 4000 mass spectrometer equipped with an API electrospray ionization (ESI) source. The mobile phases used are a linear gradient of mobile phase A (10 mM ammonium acetate in H2O) and mobile phase B (10 mM ammonium acetate in 90% MeOH). The column used was Xtimate C18 2.1 × 30 mm (3 μm) with a flow rate of 0.6 mL/min. The mass spectrometer was operated in ESI positive ion mode and detection of the drugs was performed by multiple reaction monitoring (MRM).
For another data set, the system named is T1, Gal4-MLL(2840–2858).
T1 construct: human MLL (2840–2858) ([…]); expressed in transfected cells; host or cells: HEK293T
Briefly: Gal4-MLL transcription reporter assay in HEK293T cells. Format: cell-based, human. Particulars: pG5B reporter, increasing concentrations, 5–7 h. As to the method:
(§1) In these transcription reporter assays, HEK293T cells were transfected with Gal4-fusions along with a Gal4-responsive luciferase reporter or SRF-responsive luciferase (SRE-Luc) reporter. For Gal4-TEAD4, coactivator YAP1 was also included for transfection to enhance its transcription activity. Then the cells were treated with increasing concentrations of 666-15. […] (Fig. 2D).
(§2) Figure 2 Selectivity of 666-15 against different transcription factors. […] HEK 293T cells were transfected with Gal4-MLL/pG5B (A) Gal4-c-Myb/pG5B (B) Gal4-TEAD4/YAP1/pG5B (C) or SRE-Luc (D). Then the transfected cells were treated with increasing concentrations of 666-15 for 5–7 h. The luciferase activity was then measured, normalized to the protein content and expressed as relative luciferase unit (RLuc)/μg protein.
(§3) 666-15 was described before. […]
(§4) HEK293T cells (ATCC) were routinely cultured in Dulbecco’s modified Eagle medium (DMEM, Life Technologies) supplemented with 10% fetal bovine serum (Hyclone) and non-essential amino acids (Life Technologies). […] The luciferase activity was measured by a tube luminometer (Berthold) using luciferase assay reagent (Promega). The protein concentration of the cell lysates in each well was determined using a Protein Assay Dye Reagent (Biorad). The luciferase activity in each well was normalized to the protein content and expressed as RLuc (relative luciferase unit)/μg protein.
Background: In a reporter assay the amount or activity of a reporter protein is the signal.

The target in a further data set is T2, Gal4-c-Myb(241–325) (Homo sapiens, UniProt P10242).
T2 construct: Gal4-c-Myb (241–325) was a generous gift of Dr. Anders Näär; expressed in transfected cells; host or cells: HEK293T
T2 sequence (P10242 with tags, fused parts or gaps limits assumed): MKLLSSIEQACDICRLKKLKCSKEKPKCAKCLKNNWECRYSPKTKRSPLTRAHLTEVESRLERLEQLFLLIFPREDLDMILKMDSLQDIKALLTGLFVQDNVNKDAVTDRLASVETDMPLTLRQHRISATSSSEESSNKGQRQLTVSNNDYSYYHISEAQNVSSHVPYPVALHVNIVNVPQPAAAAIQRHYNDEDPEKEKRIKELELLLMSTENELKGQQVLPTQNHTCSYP
Description: Gal4-c-Myb transcription reporter assay in HEK293T cells. Format: cell-based. To be noted: pG5B reporter, increasing concentrations, 5–7 h. As to the method:
as §1, §2, §3, §4

A further data set relates to c-Myb. Also noted: method as in PMID 15585582, PMID 25740244. Particulars: cited from earlier work.

T1 sequence (P04386 with tags, fused parts or gaps): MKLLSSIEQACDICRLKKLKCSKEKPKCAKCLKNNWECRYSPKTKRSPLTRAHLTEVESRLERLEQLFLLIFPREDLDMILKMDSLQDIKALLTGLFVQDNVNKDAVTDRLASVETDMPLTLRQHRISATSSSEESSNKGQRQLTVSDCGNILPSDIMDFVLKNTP

Turning to `NCCCOc1cc2ccccc2cc1C(=O)NCCOc1cc2ccccc2cc1C(=O)Nc1ccc(Cl)cc1O` [666-15], the concentration at 24 h in data set [1] is 50 to 100 nM. The “inhibition of Gal4-MLL-mediated transcription” value in the data set with Gal4-MLL(2840–2858) is listed as “no inhibition”. In addition, the “inhibition of Gal4-c-Myb-mediated transcription” value against Gal4-c-Myb(241–325) is “no inhibition”.

As to `O=C(Nc1ccc(Cl)cc1)c1cc2ccccc2cc1OP(=O)(O)O` [naphthol AS-E phosphate], the “effect on c-Myb's activity” value in the data set with c-Myb was “inhibits c-Myb’s activity”.

(Values after paper PMC5046085, “Systemic Inhibition of CREB is Well-tolerated in vivo” (Scientific Reports, 2016).)
